# In patent US6737383B1, “Herbicidal oxadiazolidines” (priority 1999, dated 2004):
# Key:
# sugar beet = assay: Test B pre/postemergence sugar beet; type: in vivo, Beta vulgaris; conditions: for Plant response rating, Sugarbeets: Rate 250 g/ha
# Outline: (§1)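 Herbicidal effect was estimated by eye on a ten-point control scale after plants spent twelve to sixteen days in a greenhouse following soil or foliar treatment. Foliar sprays targeted plants at one to four leaves; all doses were formulated in a non-phytotoxic solvent with surfactant.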
# wheat = assay: Test B pre/postemergence wheat; type: in vivo, Triticum aestivum; conditions: for Plant response rating, Wheat: Rate 250 g/ha
# Outline: as §1
# cocklebur = assay: Test B pre/postemergence cocklebur; type: in vivo, Xanthium strumarium
# Outline: as §1
# corn = assay: Test B pre/postemergence corn; type: in vivo, Zea mays
# Outline: as §1
# purple nutsedge = assay: Test B pre/postemergence purple nutsedge; type: in vivo, Cyperus rotundus
# Outline: as §1
# soybean = assay: Test B pre/postemergence soybean; type: in vivo, Glycine max
# Outline: as §1
# surinam grass = assay: Test B pre/postemergence surinam grass; type: in vivo, Brachiaria decumbens
# Outline: as §1
# blackgrass = assay: Test B pre/postemergence blackgrass; type: in vivo, Alopecurus myosuroides
# Outline: as §1
# wild oat = assay: Test B pre/postemergence wild oat; type: in vivo, Avena fatua; conditions: for Plant response rating, Wild oats: Rate 250 g/ha
# Outline: as §1
# velvetleaf = assay: Test B pre/postemergence velvetleaf; type: in vivo, Abutilon theophrasti; conditions: for Plant response rating, Velvetleaf: Rate 250 g/ha
# Outline: as §1
# rape = assay: Test B pre/postemergence rape; type: in vivo, Brassica napus
# Outline: as §1
# crabgrass = assay: Test B pre/postemergence crabgrass; type: in vivo, Digitaria sanguinalis
# Outline: as §1
# pigweed = assay: Test B pre/postemergence pigweed; type: in vivo, Amaranthus retroflexus
# Outline: as §1
# smallflower flatsedge = assay: Test B flood test smallflower flatsedge; type: in vivo, Cyperus difformis
# Outline: (§2)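 Each value is a visual injury score relative to controls, with 10 meaning complete control and 0 no effect. Evaluation took place twelve to sixteen days after the 2-leaf-stage plants were treated and kept in the greenhouse.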
# bamyardgrass = assay: Test B flood test barnyardgrass; type: in vivo, Echinochloa crus-galli
# Outline: as §2
# bedstraw = assay: Test B pre/postemergence bedstraw; type: in vivo, Galium aparine
# Outline: as §1
# [1] = Postemergence, Rate 125 g/ha, scale of 0 to 10 where 0 is no effect and 10 is complete control
# [2] = Preemergence, Rate 62 g/ha, scale 0 to 10 (0 no effect, 10 complete control)
# [3] = Preemergence, Rate 125 g/ha, 0 is no effect, 10 is complete control
# [4] = Preemergence, scale of 0 to 10 where 0 is no effect and 10 is complete control
# [5] = Preemergence, Rate 500 g/ha, scale 0 to 10 (0 no effect, 10 complete control)
# [6] = Rate 62 g/ha, Postemergence, scale of 0 to 10 where 0 is no effect and 10 is complete control
# [7] = Postemergence, scale 0 to 10, 0 is no effect, 10 is complete control
# [8] = Rate 500 g/ha, Postemergence, scale 0 to 10, 0 no effect, 10 complete control
# [9] = Postemergence, Rate 250 g/ha, scale 0 to 10, 0 no effect, 10 complete control
# [10] = Preemergence, Rate 125 g/ha, scale 0 to 10 (0 no effect, 10 complete control)
# [11] = Preemergence, Rate 250 g/ha, scale of 0 to 10 where 0 is no effect and 10 is complete control
# [12] = Rate 250 g/ha, Postemergence, scale 0 to 10, 0 is no effect, 10 is complete control
# [13] = Postemergence, Rate 62 g/ha, scale 0 to 10, 0 is no effect, 10 is complete control
# [14] = Rate 500 g/ha, listed under Postemergence (flood test species), scale 0 to 10, 0 no effect, 10 complete control
structure (smiles),measurement,setting,value
Cc1nn(C)c(C)c1-n1c(=O)on(C(=O)N(c2ccccc2)C(C)C)c1=O [Compound 120],Sugarbeets plant response rating,sugar beet; [1],0
same,Sugarbeets plant response rating,sugar beet; [2],0
same,Sugarbeets plant response rating (0 to 10 scale),sugar beet; [3],2
same,"Plant response rating, Sugarbeets",sugar beet; [4],4
same,Sugarbeets plant response rating,sugar beet; [5],7
same,Sugarbeets plant response rating,sugar beet; [6],0
same,"Plant response rating, Sugarbeets",sugar beet; [7],0
same,Sugarbeets plant response rating,sugar beet; [8],0
same,Wheat plant response rating,wheat; [1],0
same,Wheat plant response rating,wheat; [2],0
same,Wheat plant response rating (0 to 10 scale),wheat; [3],0
same,"Plant response rating, Wheat",wheat; [4],2
same,Wheat plant response rating,wheat; [5],6
same,Wheat plant response rating,wheat; [6],0
same,"Plant response rating, Wheat",wheat; [7],0
same,Wheat plant response rating,wheat; [8],4
same,Cocklebur plant response rating,cocklebur; [1],1
same,Cocklebur plant response rating,cocklebur; [9],3
same,Cocklebur plant response rating,cocklebur; [2],0
same,"Plant response rating, Cocklebur",cocklebur; [10],0
same,"Plant response rating, Cocklebur",cocklebur; [11],0
same,Cocklebur plant response rating,cocklebur; [5],0
same,Cocklebur plant response rating,cocklebur; [6],1
same,Cocklebur plant response rating,cocklebur; [8],4
same,Corn plant response rating,corn; [1],0
same,Corn plant response rating,corn; [9],2
same,Corn plant response rating,corn; [2],0
same,"Plant response rating, Corn",corn; [10],0
same,"Plant response rating, Corn",corn; [11],0
same,Corn plant response rating,corn; [5],0
same,Corn plant response rating,corn; [6],0
same,Corn plant response rating,corn; [8],4
same,Nutsedge plant response rating,purple nutsedge; [1],0
same,Nutsedge plant response rating,purple nutsedge; [9],0
same,Nutsedge plant response rating,purple nutsedge; [2],0
same,"Plant response rating, Nutsedge",purple nutsedge; [10],0
same,"Plant response rating, Nutsedge",purple nutsedge; [11],0
same,Nutsedge plant response rating,purple nutsedge; [5],0
same,Nutsedge plant response rating,purple nutsedge; [6],0
same,Soybean plant response rating,soybean; [1],3
same,Soybean plant response rating,soybean; [2],0
same,"Plant response rating, Soybean",soybean; [10],0
same,"Plant response rating, Soybean",soybean; [11],0
same,Soybean plant response rating,soybean; [5],0
same,Soybean plant response rating,soybean; [6],2
same,"Plant response rating, Soybean",soybean; [12],4
same,Soybean plant response rating,soybean; [8],6
same,B. signalgrass plant response rating,surinam grass; [13],0
same,B. signalgrass plant response rating,surinam grass; [9],7
same,B. signalgrass plant response rating,surinam grass; [2],0
same,"Plant response rating, B. signalgrass",surinam grass; [10],3
same,"Plant response rating, B. signalgrass",surinam grass; [11],6
same,B. signalgrass plant response rating,surinam grass; [5],8
same,B. signalgrass plant response rating,"surinam grass; Rate 125 g/ha, Postemergence, scale 0 to 10, 0 no effect, 10 complete control",4
same,B. signalgrass plant response rating,"surinam grass; Rate 500 g/ha, Postemergence, scale of 0 to 10 where 0 is no effect and 10 is complete control",8
same,Blackgrass plant response rating,blackgrass; [1],4
same,Blackgrass plant response rating,blackgrass; [9],6
same,Blackgrass plant response rating,blackgrass; [2],0
same,"Plant response rating, Blackgrass",blackgrass; [10],3
same,"Plant response rating, Blackgrass",blackgrass; [11],7
same,Blackgrass plant response rating,blackgrass; [5],8
same,Blackgrass plant response rating,blackgrass; [6],0
same,Blackgrass plant response rating,blackgrass; [8],8
same,Wild oats plant response rating,wild oat; [1],0
same,Wild oats plant response rating,wild oat; [2],0
same,Wild oats plant response rating (0 to 10 scale),wild oat; [3],2
same,"Plant response rating, Wild oats",wild oat; [4],6
same,Wild oats plant response rating,wild oat; [5],8
same,Wild oats plant response rating,wild oat; [6],0
same,"Plant response rating, Wild oats",wild oat; [7],0
same,Wild oats plant response rating,wild oat; [8],2
same,Velvetleaf plant response rating,velvetleaf; [1],0
same,Velvetleaf plant response rating,velvetleaf; [2],0
same,Velvetleaf plant response rating (0 to 10 scale),velvetleaf; [3],0
same,"Plant response rating, Velvetleaf",velvetleaf; [4],0
same,Velvetleaf plant response rating,velvetleaf; [5],3
same,Velvetleaf plant response rating,velvetleaf; [6],0
same,"Plant response rating, Velvetleaf",velvetleaf; [7],2
same,Velvetleaf plant response rating,velvetleaf; [8],6
same,Rape plant response rating,rape; [1],0
same,Rape plant response rating,rape; [9],0
same,Rape plant response rating,rape; [2],0
same,"Plant response rating, Rape",rape; [10],0
same,"Plant response rating, Rape",rape; [11],0
same,Rape plant response rating,rape; [5],3
same,Rape plant response rating,rape; [6],0
same,Rape plant response rating,rape; [8],0
same,Crabgrass plant response rating,crabgrass; [1],7
same,Crabgrass plant response rating,crabgrass; [9],9
same,Crabgrass plant response rating,crabgrass; [2],6
same,"Plant response rating, Crabgrass",crabgrass; [10],6
same,"Plant response rating, Crabgrass",crabgrass; [11],9
same,Crabgrass plant response rating,crabgrass; [5],9
same,Crabgrass plant response rating,crabgrass; [6],5
same,Crabgrass plant response rating,crabgrass; [8],9
same,Redroot pigweed plant response rating,pigweed; [1],0
same,Redroot pigweed plant response rating,pigweed; [2],7
same,"Plant response rating, Redroot pigweed",pigweed; [10],8
same,"Plant response rating, Redroot pigweed",pigweed; [11],8
same,Redroot pigweed plant response rating,pigweed; [5],8
same,Redroot pigweed plant response rating,pigweed; [6],0
same,"Plant response rating, Redroot pigweed",pigweed; [12],0
same,Redroot pigweed plant response rating,pigweed; [8],3
same,S. Flatsedge plant response rating,"smallflower flatsedge; Postemergence (flood test species), Rate 125 g/ha, scale of 0 to 10 where 0 is no effect and 10 is complete control",0
same,S. Flatsedge plant response rating,"smallflower flatsedge; Rate 62 g/ha, Postemergence section, flood test species, scale of 0 to 10 where 0 is no effect and 10 is complete control",0
same,"Plant response rating, S. Flatsedge","smallflower flatsedge; Rate 250 g/ha, Postemergence (flood test), scale 0 to 10, 0 is no effect, 10 is complete control",0
same,S. Flatsedge plant response rating,smallflower flatsedge; [14],0
same,Barnyardgrass plant response rating,bamyardgrass; [13],0
same,Barnyardgrass plant response rating,"bamyardgrass; Rate 125 g/ha, Postemergence section (flood test species), scale 0 to 10, 0 no effect, 10 complete control",0
same,Barnyardgrass plant response rating,bamyardgrass; [14],0
same,Barnyardgrass plant response rating,"bamyardgrass; flood test, listed under Postemergence, Rate 250 g/ha, scale 0 to 10, 0 no effect, 10 complete control",0
same,Bedstraw plant response rating,bedstraw; [2],0
same,"Plant response rating, Bedstraw",bedstraw; [10],0
same,"Plant response rating, Bedstraw",bedstraw; [11],0
same,Bedstraw plant response rating,bedstraw; [5],0
same,Bedstraw plant response rating,bedstraw; [8],2
